Data reported in ChEMBL document CHEMBL6114961, “Novel isoxazole thiophene-containing compounds active against Mycobacterium tuberculosis” (Bioorg Med Chem Lett, 2025).
Values after ≈ are worked out from the molar mass of the structure shown.

Key:
Type in all cases: functional
[1] = system: Mycobacterium tuberculosis; assay: Antituberculosis activity against Mycobacterium tuberculosis sCHN240 mutant CR1 strain assessed as reduction in bacterial growth
[2] = system: Mycobacterium tuberculosis; assay: Antituberculosis activity against Mycobacterium tuberculosis sCHN240 mutant CR3 strain assessed as reduction in bacterial growth
[3] = system: Mycobacterium tuberculosis; assay: Antituberculosis activity against Mycobacterium tuberculosis sCHN240 mutant CR2 strain assessed as reduction in bacterial growth
[4] = system: Mycobacterium tuberculosis; assay: Antituberculosis activity against Mycobacterium tuberculosis sCHN240 mutant CR5 strain assessed as reduction in bacterial growth
[5] = system: Mycobacterium tuberculosis; assay: Antituberculosis activity against Mycobacterium tuberculosis sCHN240 mutant CR6 strain assessed as reduction in bacterial growth
[6] = system: Mycobacterium tuberculosis; assay: Antituberculosis activity against Mycobacterium tuberculosis Rv1625c mutant assessed as reduction in bacterial growth measured after 7 days using 7H9 broth by Alamar blue staining based analysis; conditions: time 7 day

Row | Compound | MIC90 [1] [µM] | MIC90 [2] [µM] | MIC90 [3] [µM] | MIC90 [4] [µM] | MIC90 [5] [µM] | MIC90 [6] [µM]
1 | Cn1ncnc1CC(=O)N1CCC(c2nc(-c3ccc(Cl)c(Cl)c3)no2)CC1 | >20 | >20 | >20 | >20 | >20 | 
2 | O=S(=O)(Nc1cc(-c2ccsc2)no1)c1ccccc1F |  |  |  |  |  | 19.9 (≈ 6.45 µg/mL)
